Test results taken from ChEMBL document CHEMBL4610120, “New Broad-Spectrum Antibiotics Containing a Pyrrolobenzodiazepine Ring with Activity against Multidrug-Resistant Gram-Negative Bacteria” (J Med Chem, 2020).
Values after ≈ are worked out from the molar mass of the structure shown.

Test system: not listed separately
Experiment: Selectivity ratio of cytotoxicity against human WI38 cells to MIC for Pseudomonas aeruginosa PAO1
Assay type: toxicity, cell-based
Details: not given

| Compound | selectivity ratio |
| --- | --- |
| CCN(CC)C(=O)c1cc(-c2ccc(NC(=O)c3cc(NC(=O)CCCOc4cc5c(cc4OC)C(=O)N4CCC[C@H]4C=N5)cn3C)cc2)cn1C | 10 |

Test system: Klebsiella pneumoniae
Experiment: Antimicrobial activity against Klebsiella pneumoniae M6 by microdilution broth method
Assay type: functional
Details: not given

| Compound | MIC [µg/mL] |
| --- | --- |
| CCN(CC)C(=O)c1cc(-c2ccc(NC(=O)c3cc(NC(=O)CCCOc4cc5c(cc4OC)C(=O)N4CCC[C@H]4C=N5)cn3C)cc2)cn1C | > 128 |

Test system: Enterococcus faecalis
Experiment: Antibacterial activity against vancomycin sensitive Enterococcus faecalis NCTC 775 by microdilution broth method
Assay type: functional
Details: not given

| Compound | MIC [µg/mL] |
| --- | --- |
| CCN(CC)C(=O)c1cc(-c2ccc(NC(=O)c3cc(NC(=O)CCCOc4cc5c(cc4OC)C(=O)N4CCC[C@H]4C=N5)cn3C)cc2)cn1C | 0.5 (≈ 0.706 µM) |

Test system: Enterococcus faecium
Experiment: Antibacterial activity against vancomycin resistant Enterococcus faecium NCTC 12204 by microdilution broth method
Assay type: functional
Details: not given

| Compound | MIC [µg/mL] |
| --- | --- |
| CCN(CC)C(=O)c1cc(-c2ccc(NC(=O)c3cc(NC(=O)CCCOc4cc5c(cc4OC)C(=O)N4CCC[C@H]4C=N5)cn3C)cc2)cn1C | 0.25 (≈ 0.353 µM) |

Test system: Staphylococcus aureus
Experiment: Antibacterial activity against methicillin resistant Staphylococcus aureus NCTC 13616 by microdilution broth method
Assay type: functional
Details: not given

| Compound | MIC [µg/mL] |
| --- | --- |
| CCN(CC)C(=O)c1cc(-c2ccc(NC(=O)c3cc(NC(=O)CCCOc4cc5c(cc4OC)C(=O)N4CCC[C@H]4C=N5)cn3C)cc2)cn1C | 1 (≈ 1.41 µM) |

Test system: DNA
Experiment: Stabilization of 5'-FAM-TAT-ATA-TAG-ATA-TTT-TTT-TAT-CTA-TAT-ATA-3'-TAMRA DNA (unknown origin) assessed as reduction in change in melting temperature at 1:1 to 5:1 ligand to DNA ratio measured after 3 hrs by FRET-based assay relative to control
Assay type: ADME, nucleic-acid assay
Details: not given

| Compound | fold change (FC) |
| --- | --- |
| CCN(CC)C(=O)c1cc(-c2ccc(NC(=O)c3cc(NC(=O)CCCOc4cc5c(cc4OC)C(=O)N4CCC[C@H]4C=N5)cn3C)cc2)cn1C | 3 to 4 |

Test system: Acinetobacter baumannii
Experiment: Antimicrobial activity against Acinetobacter baumannii ATCC 17978 by microdilution broth method
Assay type: functional
Details: not given

| Compound | MIC [µg/mL] |
| --- | --- |
| CCN(CC)C(=O)c1cc(-c2ccc(NC(=O)c3cc(NC(=O)CCCOc4cc5c(cc4OC)C(=O)N4CCC[C@H]4C=N5)cn3C)cc2)cn1C | 64 (≈ 90.4 µM) |

Test system: not listed separately
Experiment: Selectivity ratio of cytotoxicity against human WI38 cells to MIC for multidrug-resistant Pseudomonas aeruginosa NCTC 13437
Assay type: toxicity, cell-based
Details: not given

| Compound | selectivity ratio |
| --- | --- |
| CCN(CC)C(=O)c1cc(-c2ccc(NC(=O)c3cc(NC(=O)CCCOc4cc5c(cc4OC)C(=O)N4CCC[C@H]4C=N5)cn3C)cc2)cn1C | 10 |

Test system: not listed separately
Experiment: Selectivity ratio of cytotoxicity against human WI38 cells to MIC for multidrug-resistant Acinetobacter baumannii AYE
Assay type: toxicity, cell-based
Details: not given

| Compound | selectivity ratio |
| --- | --- |
| CCN(CC)C(=O)c1cc(-c2ccc(NC(=O)c3cc(NC(=O)CCCOc4cc5c(cc4OC)C(=O)N4CCC[C@H]4C=N5)cn3C)cc2)cn1C | 10 |

Test system: not listed separately
Experiment: Selectivity ratio of cytotoxicity against human WI38 cells to MIC for vancomycin resistant Enterococcus faecalis NCTC 12201
Assay type: toxicity, cell-based
Details: not given

| Compound | selectivity ratio |
| --- | --- |
| CCN(CC)C(=O)c1cc(-c2ccc(NC(=O)c3cc(NC(=O)CCCOc4cc5c(cc4OC)C(=O)N4CCC[C@H]4C=N5)cn3C)cc2)cn1C | 100 |

Test system: not listed separately
Experiment: Cytotoxicity against human WI38 cells assessed as cell viability at 20 uM measured after 24 hrs by MTT assay relative to control
Assay type: cell-based, WI-38
Details: read-out: Activity

| Compound | viability at 24 h, 20 µM [%] |
| --- | --- |
| CCN(CC)C(=O)c1cc(-c2ccc(NC(=O)c3cc(NC(=O)CCCOc4cc5c(cc4OC)C(=O)N4CCC[C@H]4C=N5)cn3C)cc2)cn1C | > 85 |

Test system: not listed separately
Experiment: Selectivity ratio of cytotoxicity against human WI38 cells to MIC for methicillin resistant Staphylococcus aureus NCTC 13277
Assay type: toxicity, cell-based
Details: not given

| Compound | selectivity ratio |
| --- | --- |
| CCN(CC)C(=O)c1cc(-c2ccc(NC(=O)c3cc(NC(=O)CCCOc4cc5c(cc4OC)C(=O)N4CCC[C@H]4C=N5)cn3C)cc2)cn1C | 100 |

Test system: not listed separately
Experiment: Selectivity ratio of cytotoxicity against human WI38 cells to MIC for methicillin sensitive Staphylococcus aureus NCTC 6571
Assay type: toxicity, cell-based
Details: not given

| Compound | selectivity ratio |
| --- | --- |
| CCN(CC)C(=O)c1cc(-c2ccc(NC(=O)c3cc(NC(=O)CCCOc4cc5c(cc4OC)C(=O)N4CCC[C@H]4C=N5)cn3C)cc2)cn1C | 100 |

Test system: not listed separately
Experiment: Selectivity ratio of cytotoxicity against human WI38 cells to MIC for vancomycin sensitive Enterococcus faecalis NCTC 775
Assay type: toxicity, cell-based
Details: not given

| Compound | selectivity ratio |
| --- | --- |
| CCN(CC)C(=O)c1cc(-c2ccc(NC(=O)c3cc(NC(=O)CCCOc4cc5c(cc4OC)C(=O)N4CCC[C@H]4C=N5)cn3C)cc2)cn1C | 100 |

Test system: Enterococcus faecalis
Experiment: Antibacterial activity against vancomycin resistant Enterococcus faecalis NCTC 12201 by microdilution broth method
Assay type: functional
Details: not given

| Compound | MIC [µg/mL] |
| --- | --- |
| CCN(CC)C(=O)c1cc(-c2ccc(NC(=O)c3cc(NC(=O)CCCOc4cc5c(cc4OC)C(=O)N4CCC[C@H]4C=N5)cn3C)cc2)cn1C | 0.25 to 0.5 (≈ 0.353 to 0.706 µM) |

Test system: DNA
Experiment: Stabilization of 5'-FAM-TAT-AGA-TAT-AGA-TAT-TTT-ATA-TCT-ATA-TCT-ATA-3'-TAMRA DNA (unknown origin) assessed as reduction in change in melting temperature at 1:1 to 5:1 ligand to DNA ratio measured after 3 hrs by FRET-based assay relative to control
Assay type: ADME, nucleic-acid assay
Details: not given

| Compound | fold change (FC) |
| --- | --- |
| CCN(CC)C(=O)c1cc(-c2ccc(NC(=O)c3cc(NC(=O)CCCOc4cc5c(cc4OC)C(=O)N4CCC[C@H]4C=N5)cn3C)cc2)cn1C | 3 to 4 |

Test system: not listed separately
Experiment: Selectivity ratio of cytotoxicity against human WI38 cells to MIC for Klebsiella pneumoniae M6
Assay type: toxicity, cell-based
Details: not given

| Compound | selectivity ratio |
| --- | --- |
| CCN(CC)C(=O)c1cc(-c2ccc(NC(=O)c3cc(NC(=O)CCCOc4cc5c(cc4OC)C(=O)N4CCC[C@H]4C=N5)cn3C)cc2)cn1C | 10 |

Test system: not listed separately
Experiment: Selectivity ratio of cytotoxicity against human WI38 cells to MIC for Acinetobacter baumannii ATCC 17978
Assay type: toxicity, cell-based
Details: not given

| Compound | selectivity ratio |
| --- | --- |
| CCN(CC)C(=O)c1cc(-c2ccc(NC(=O)c3cc(NC(=O)CCCOc4cc5c(cc4OC)C(=O)N4CCC[C@H]4C=N5)cn3C)cc2)cn1C | 10 |

Test system: not listed separately
Experiment: Selectivity ratio of cytotoxicity against human WI38 cells to MIC for vancomycin resistant Enterococcus faecium NCTC 12204
Assay type: toxicity, cell-based
Details: not given

| Compound | selectivity ratio |
| --- | --- |
| CCN(CC)C(=O)c1cc(-c2ccc(NC(=O)c3cc(NC(=O)CCCOc4cc5c(cc4OC)C(=O)N4CCC[C@H]4C=N5)cn3C)cc2)cn1C | 100 |

Test system: Pseudomonas aeruginosa
Experiment: Antimicrobial activity against Pseudomonas aeruginosa PAO1 by microdilution broth method
Assay type: functional
Details: not given

| Compound | MIC [µg/mL] |
| --- | --- |
| CCN(CC)C(=O)c1cc(-c2ccc(NC(=O)c3cc(NC(=O)CCCOc4cc5c(cc4OC)C(=O)N4CCC[C@H]4C=N5)cn3C)cc2)cn1C | > 128 |

Test system: Staphylococcus aureus
Experiment: Antibacterial activity against methicillin resistant Staphylococcus aureus NCTC 13277 by microdilution broth method
Assay type: functional
Details: not given

| Compound | MIC [µg/mL] |
| --- | --- |
| CCN(CC)C(=O)c1cc(-c2ccc(NC(=O)c3cc(NC(=O)CCCOc4cc5c(cc4OC)C(=O)N4CCC[C@H]4C=N5)cn3C)cc2)cn1C | 1 (≈ 1.41 µM) |

Test system: not listed separately
Experiment: Selectivity ratio of cytotoxicity against human WI38 cells to MIC for methicillin resistant Staphylococcus aureus NCTC 13616
Assay type: toxicity, cell-based
Details: not given

| Compound | selectivity ratio |
| --- | --- |
| CCN(CC)C(=O)c1cc(-c2ccc(NC(=O)c3cc(NC(=O)CCCOc4cc5c(cc4OC)C(=O)N4CCC[C@H]4C=N5)cn3C)cc2)cn1C | 100 |

Test system: Acinetobacter baumannii
Experiment: Antimicrobial activity against multidrug-resistant Acinetobacter baumannii AYE by microdilution broth method
Assay type: functional
Details: not given

| Compound | MIC [µg/mL] |
| --- | --- |
| CCN(CC)C(=O)c1cc(-c2ccc(NC(=O)c3cc(NC(=O)CCCOc4cc5c(cc4OC)C(=O)N4CCC[C@H]4C=N5)cn3C)cc2)cn1C | 32 (≈ 45.2 µM) |

Test system: Klebsiella pneumoniae
Experiment: Antimicrobial activity against multidrug-resistant Klebsiella pneumoniae NCTC 13368 by microdilution broth method
Assay type: functional
Details: not given

| Compound | MIC [µg/mL] |
| --- | --- |
| CCN(CC)C(=O)c1cc(-c2ccc(NC(=O)c3cc(NC(=O)CCCOc4cc5c(cc4OC)C(=O)N4CCC[C@H]4C=N5)cn3C)cc2)cn1C | > 128 |

Test system: Pseudomonas aeruginosa
Experiment: Antimicrobial activity against multidrug-resistant Pseudomonas aeruginosa NCTC 13437 by microdilution broth method
Assay type: functional
Details: not given

| Compound | MIC [µg/mL] |
| --- | --- |
| CCN(CC)C(=O)c1cc(-c2ccc(NC(=O)c3cc(NC(=O)CCCOc4cc5c(cc4OC)C(=O)N4CCC[C@H]4C=N5)cn3C)cc2)cn1C | > 128 |

Test system: Staphylococcus aureus
Experiment: Antibacterial activity against methicillin sensitive Staphylococcus aureus NCTC 6571 by microdilution broth method
Assay type: functional
Details: not given

| Compound | MIC [µg/mL] |
| --- | --- |
| CCN(CC)C(=O)c1cc(-c2ccc(NC(=O)c3cc(NC(=O)CCCOc4cc5c(cc4OC)C(=O)N4CCC[C@H]4C=N5)cn3C)cc2)cn1C | 0.25 to 0.5 (≈ 0.353 to 0.706 µM) |

Test system: not listed separately
Experiment: Selectivity ratio of cytotoxicity against human WI38 cells to MIC for multidrug-resistant Klebsiella pneumoniae NCTC 13368
Assay type: toxicity, cell-based
Details: not given

| Compound | selectivity ratio |
| --- | --- |
| CCN(CC)C(=O)c1cc(-c2ccc(NC(=O)c3cc(NC(=O)CCCOc4cc5c(cc4OC)C(=O)N4CCC[C@H]4C=N5)cn3C)cc2)cn1C | 10 |
